Assay results: publication PMC6647401, “Phase I dose-escalation study of F14512, a polyamine-vectorized topoisomerase II inhibitor, in patients with platinum-refractory or resistant ovarian cancer” (Investigational New Drugs, 2018)
Where “and” joins values, the source holds several entries; their conditions need not be identical. Identical values can stand only once. Like-named read-outs stand apart in the source and are kept apart here.

Key:
[1] = test system: PTS(+) A2780R cisplatin-resistant cell line; set-up: method as in PMID 26404751; conditions: preliminary studies; cited from earlier work
[2] = test system: platinum-refractory or resistant ovarian cancer; assay: Efficacy by GCIG response criteria (RECIST 1.1 and CA-125); type: in vivo, human
Procedure: (§1) Toxicities were graded according to National Cancer Institute - Common Toxicity Criteria (NCI - CTC) for adverse events (AEs) (version 4.0). DLT determination criteria and safety assessments are described in the Online Resource. Response was assessed by using GCIG response criteria incorporating RECIST version 1.1 and CA-125. Plasma PK assessments and statistical methods are described in the Online Resource.

[3] = test system: patients with platinum-refractory or resistant ovarian cancer; type: in vivo
Procedure: This was an open-label, dose-escalation, multicenter, phase I study (EudraCT Number: 2012–005798-29) conducted in 3 investigational sites in France. The 10 mg/m^2/day dose of F14512 was planned as a starting dose (DL1) for escalation in cohorts of 3 to 6 patients until the MTD was reached. Dose escalation was based on a standard titration design by using increments of 33% except from the first dose escalation, which could proceed with a dose increment of 50% in the absence of grade 3 neutropenia and dose limiting toxicity (DLT) observed at DL1. Dose escalation then proceeded except if criteria of MTD were met at DL1. In that instance, the 5 mg/m^2/day dose was tested. All patients in a DL had to be followed for at least 3 weeks (cycle 1) for DLT evaluation before the first patient of the next dose level started treatment. The final decision to proceed to the next DL was made by the safety committee at the dose-escalation meeting. The MTD was defined as the DL at which 2/3 or 2/6 patients experienced a DLT during the first cycle. The Recommended Dose (RD) was the DL immediately below the MTD. A total of 10 evaluable patients had to be treated at the RD.
F14512 was administered as three-hour daily infusion through a central venous catheter for 3 consecutive days every 3 weeks depending on recovery to normal hematopoiesis or recovery of non-hematological toxicities to grade 1. During the first cycle, G- and GM-CSF use was prohibited, however, there were no such constraints in subsequent cycles.
DLTs were defined as one of the following drug-related AEs occurring during the first cycle: grade 4 neutropenia ≥ 7 days, grade 4 thrombocytopenia, or grade 3 thrombocytopenia requiring transfusion and/or associated with bleeding, grade 3 or 4 neutropenia concomitant with grade ≥ 3 infection or febrile neutropenia, any grade ≥ 3 gastrointestinal toxicity including grade ≥ 3 nausea, vomiting or diarrhea if persistent despite optimal antiemetic or anti-diarrheal treatment, any other drug-related grade ≥ 3 toxicity, any drug-related AE that required a delay of ≥ 2 weeks of the administration of cycle 2.

[4] = test system: human cancer cell lines; set-up: method as in PMID 19047165; conditions: in vitro; cited from earlier work
[5] = test system: relapsed or refractory acute myeloid leukemia (AML); set-up: method as in earlier work; conditions: single agent, AML patients at first relapse; cited from earlier work
[6] = test system: experimental models; set-up: method as in PMID 19777159; conditions: cited from earlier work
[7] = test system: patients with platinum-refractory or resistant ovarian cancer; assay: Safety: study drug-related adverse events (NCI-CTC v4.0); type: in vivo, human
Procedure: as §1
Safety was assessed by physical examination on days 1, 2 and 3 during each cycle. Complete blood cell counts were performed on days 4, 6, 8, 10, 12 and 15 of the first cycle, on day 1 of each subsequent cycle and then on a weekly basis thereafter. Serum chemistry was performed weekly during the first cycle and at the end of each cycle thereafter except serum magnesium and potassium which were measured twice weekly during the first week of each cycle and then, weekly for the following weeks. ECGs were performed at baseline and on day 1 of each cycle.

[8] = test system: SK-OV3 cancer cells; set-up: method as in PMID 26404751; conditions: cited from earlier work
[9] = Plasma pharmacokinetics (LC/MS/MS); type: in vivo, human; conditions: for AUCinf/dose level of F14512: n = 11, mean [range], three-hour infusion
Procedure: Plasma PK was studied after the administrations on days 1 and 3 of cycle 1 (pre-dose, T0+1.5 h, T0+3 h, T0+3.5 h, T0+4 h, T0+6 h T0+12 h, T0+24 h) and day 1 of cycle 2 (pre-dose, T0+3.5 h, T0+8 h, T0+24 h). F14512, its metabolite F16490 and the metabolite BG (an additional metabolite peak found in human during exploratory metabolite identification analysis and not retrieved in animal species) were assayed in plasma using liquid chromatography coupled with tandem mass spectrometry (LC/MS/MS).
Continuous data were summarized with frequency, median, range, mean, standard deviation and standard error if relevant. Categorical data were presented as frequencies and percentages. 95% confidence intervals (CI) were calculated following the exact method. PK parameters were compared for reproducibility between day 1 and day 3 of cycle 1 for F14512 and its metabolite F16490 using a pairwise t-test or a Wilcoxon test according to the normality of their distribution. Dose-proportionality of PK parameters for F14512 and its metabolite F16490 was investigated by graphical display only. A p value <0.05 was considered statistically significant. Data were analyzed using the SAS® system software version 9.3 for Windows® (Statistical Analysis System, Cary, NC, USA).

[10] = test system: platinum-resistant ovarian cancer (PROC); conditions: cited from earlier work
[11] = Overall n = 11 (both dose levels), worse grade by patient

COc1cc([C@@H]2c3cc4c(cc3[C@@H](NC(=O)CNCCCNCCCCNCCCN)[C@H]3COC(=O)[C@H]23)OCO4)cc(OC)c1O [F14512]
Antitumor activity in ovarian tumor models [1]: confirmed the antitumor activity
Objective response ([2]; 5 patients evaluable for efficacy, GCIG criteria): no objective response
Stable disease (SD) as best overall response ([2]; of 5 evaluable patients (40%), both received 9 cycles, 1 at each DL): 2 patients
Number of DLTs reported ([3]; 5 mg/m^2/day, in 2/6 treated patients): 2 DLTs
Number of DLTs reported ([3]; 10 mg/m^2/day, in 3/4 evaluable patients): 6 DLTs
Permanent treatment discontinuation because of study drug-related toxicity ([3]; in vivo): 5 patients
Maximum tolerated dose (MTD) ([3]; three-hour daily infusion, 3 consecutive days every 3 weeks, both dose levels defined as MTD): 5 mg/m^2/day and 10 mg/m^2/day
Cell lines with superior anti-proliferative activity [4]: 21/29
Complete remissions [5]: 36%
Tumor response in experimental models ([6]; after intravenous or oral administration): complete tumor regression
Experimental models with antitumor efficacy ([6]; in vivo): 13/19
Response rate in experimental models ([6]; in vivo): 68%
Study drug-related AE: Confusional state, Overall grades ([7]; 5 mg/m^2/day, n = 6, worse grade by patient): 1 (16.7) N (%)
Grade 4 neutropenia, cycles affected / cycles administered ([7]; DL 5 mg/m^2/day): 14/16
Neutropenic infection ([7]; DL 5 mg/m^2/day): 1 patient
Grade 4 neutropenia, cycles affected / cycles administered ([7]; DL 10 mg/m^2/day): 12/13
Study drug-related AE: Alopecia, Overall grades [7, 11]: 2 (18.2) N (%)
Study drug-related AE: Any related TESS, Grade 3 [7, 11]: 6 (54.5) N (%)
Study drug-related AE: Any related TESS, Grade 4 [7, 11]: 1 (9.1) N (%)
Study drug-related AE: Any related TESS, Overall grades [7, 11]: 11 (100.0) N (%)
Study drug-related AE: Asthenia, Grade 3 [7, 11]: 2 (18.2) N (%)
Study drug-related AE: Asthenia, Overall grades [7, 11]: 9 (81.8) N (%)
Study drug-related AE: Blood and lymphatic system disorders, Grade 3 [7, 11]: 4 (36.4) N (%)
Study drug-related AE: Blood and lymphatic system disorders, Grade 4 [7, 11]: 1 (9.1) N (%)
Study drug-related AE: Blood and lymphatic system disorders, Overall grades [7, 11]: 5 (45.5) N (%)
Study drug-related AE: Confusional state, Overall grades [7, 11]: 1 (9.1) N (%)
Study drug-related AE: Constipation, Overall grades [7, 11]: 2 (18.2) N (%)
Study drug-related AE: Diarrhea, Overall grades [7, 11]: 2 (18.2) N (%)
Study drug-related AE: Dysgeusia, Overall grades [7, 11]: 1 (9.1) N (%)
Study drug-related AE: Dyspepsia, Overall grades [7, 11]: 1 (9.1) N (%)
Study drug-related AE: Febrile neutropenia, Grade 3 [7, 11]: 4 (36.4) N (%)
Study drug-related AE: Febrile neutropenia, Overall grades [7, 11]: 4 (36.4) N (%)
Study drug-related AE: Gastrointestinal disorders, Grade 3 [7, 11]: 2 (18.2) N (%)
Study drug-related AE: Gastrointestinal disorders, Overall grades [7, 11]: 6 (54.5) N (%)
Study drug-related AE: General disorders and administration site conditions, Grade 3 [7, 11]: 2 (18.2) N (%)
Study drug-related AE: General disorders and administration site conditions, Overall grades [7, 11]: 9 (81.8) N (%)
Study drug-related AE: Gingivitis, Overall grades [7, 11]: 1 (9.1) N (%)
Study drug-related AE: Infections and infestations, Overall grades [7, 11]: 1 (9.1) N (%)
Study drug-related AE: Muscle spasms, Overall grades [7, 11]: 2 (18.2) N (%)
Study drug-related AE: Musculoskeletal and connective tissue disorders, Overall grades [7, 11]: 2 (18.2) N (%)
Study drug-related AE: Myalgia, Overall grades [7, 11]: 1 (9.1) N (%)
Study drug-related AE: Nausea, Grade 3 [7, 11]: 2 (18.2) N (%)
Study drug-related AE: Nausea, Overall grades [7, 11]: 6 (54.5) N (%)
Study drug-related AE: Nervous system disorders, Overall grades [7, 11]: 1 (9.1) N (%)
Study drug-related AE: Neutropenia, Overall grades [7, 11]: 1 (9.1) N (%)
Study drug-related AE: Neutropenic infection, Overall grades [7, 11]: 1 (9.1) N (%)
Study drug-related AE: Night sweats, Overall grades [7, 11]: 1 (9.1) N (%)
Study drug-related AE: Onycholysis, Overall grades [7, 11]: 1 (9.1) N (%)
Study drug-related AE: Psychiatric disorders, Overall grades [7, 11]: 1 (9.1) N (%)
Study drug-related AE: Pyrexia, Overall grades [7, 11]: 1 (9.1) N (%)
Study drug-related deaths ([7]; all 11 patients): no study drug-related deaths
Vomiting ([7]; all 11 patients (36%)): 4 patients
Metabolism and nutrition disorder with decreased appetite ([7]; all 11 patients (46%)): 5 patients
Nausea ([7]; all 11 patients (55%)): 6 patients
Grade 4 neutropenia, share of treated patients ([7]; all 11 patients, both dose levels): 90.9%
Study drug-related SAEs per dose level ([7]; at each DL (10 and 5 mg/m^2/day)): 3 patients
Grade 4 neutropenia, cycles affected / cycles administered ([7]; both dose levels): 26/29
Gastrointestinal disorders ([7]; in vivo): 6 patients
General disorders (mainly asthenia) ([7]; in vivo): 9 patients
Grade 3 febrile neutropenia ([7]; in vivo): 4 patients
Grade 4 neutropenia reported as serious drug-related AE ([7]; in vivo): 1 patient
Grade 4 neutropenia, share of cycles administered ([7]; in vivo): 89.7%
Study drug-related AE: Skin and subcutaneous tissue disorders, Overall grades ([7]; in vivo): 4 (36.4) N (%)
Study drug-related AE: Stomatitis, Overall grades ([7]; in vivo): 1 (9.1) N (%)
Study drug-related AE: Vomiting, Overall grades ([7]; in vivo): 4 (36.4) N (%)
Study drug-related serious AEs (SAEs) ([7]; in vivo): 6 patients
Increased sensitivity to cytotoxicity compared to etoposide [8]: ten-fold
Dose dependent PK parameters versus dose level ([9]; 5 versus 10 mg/m^2/day, no statistical analysis): increased with DL
Cltot ([9]; D1 of cycle 1, n = 11, mean [range]): 13.2 [6.17–22.4] L/h
AUCinf/dose level of F14512 ([9]; D1 of cycle 1, plasma): 152 [67.7–308]
Cltot ([9]; D3 of cycle 1, n = 11, mean [range]): 12.9 [5.92–23.1] L/h
AUCinf/dose level of F14512 ([9]; D3 of cycle 1, plasma): 156 [65.9–270]
Difference of PK parameters between Day 1 and Day 3 ([9]; cycle 1, pairwise t-test or Wilcoxon test): not statistically significant

CC(=O)O[C@H]1C(=O)[C@@]2(C)[C@H]([C@H](OC(=O)c3ccccc3)[C@]3(O)C[C@H](OC(=O)[C@H](O)[C@@H](NC(=O)c4ccccc4)c4ccccc4)C(C)=C1C3(C)C)[C@]1(OC(C)=O)CO[C@@H]1C[C@@H]2O [paclitaxel]
Progression free survival [10]: 2–6 months
Response rates [10]: 0%–30%
